Where a name gives a salt, the structure may show the parent alone.
Key:
PDE4 = assay: Inhibition of PDE 4 activity (method of Bauer and Schwabe, adapted to microtitre plates); format: biochemical
Protocol: The activity test was carried out according to the method of Bauer and Schwabe, which was adapted to microtitre plates (Naunyn-Schmiederberg's Arch. Pharmacol. 311, 193-198, 1980). In this test, the PDE reaction is carried out in the first step. In a second step, the resultant 5′-nucleotide is cleaved to the uncharged nucleoside by a snake venom 5′-nucleotidase from Crotalus Atrox. In the third step, the nucleoside is separated from the remaining charged substrate on ion exchange columns. The columns are eluted directly into minivials using 2 ml of 30 mM ammonium formate (pH 6.0), to which a further 2 ml of scintillation fluid is added for counting.
The inhibitory values determined for the compounds according to the invention follow from the following table A, in which the numbers of the compounds correspond to the numbers of the examples.

Row | Compound | melting point [°C] | Inhibition of PDE4 activity [measured as -loglC50 (mol/l)] (PDE4)
1 | COc1ccc(C2=NNC(=O)[C@H]3CC=CC[C@@H]23)c2c1OC(C)(C)C2 (relative stereo) | 242 | 
2 | COc1ccc(C2=NN(C3CCCCCC3)C(=O)[C@H]3CC=CC[C@@H]23)c2c1OC(C)(C)C2 (relative stereo) [Compound 25, (cis)-4-(2,3-Dihydro-2,2-dimethyl-7-methoxybenzofuran-4-yl)-2-cycloheptyl-4a,5,8,8a-tetrahydro-2H-phthalazin-1-one] |  | 9.01
3 | COc1ccc(C2=NN(c3ccccc3)C(=O)[C@H]3CC=CC[C@@H]23)c2c1OC(C)(C)C2 (relative stereo) [Compound 27, (cis)-4-(2,3-Dihydro-2,2-dimethyl-7-methoxybenzofuran-4-yl)-2-phenyl-4a,5,8,8a-tetrahydro-2H-phthalazin-1-one] |  | 8.74
4 | COc1ccc(C2=NNC(=O)C3CC=CCC23)c2c1OC1(CCCC1)C2 (stereo not drawn) [Compound 1, (cis)-4-(2,3-Dihydro-7-methoxybenzofuran-2-spiro-1′-cyclopentan-4-yl)-4a,5,8,8a-tetrahydro-2H-phthalazin-1-one] |  | 8.02
5 | COc1ccc(C2=NN(C3CCCC3)C(=O)C3CC=CCC23)c2c1OC1(CCCC1)C2 (stereo not drawn) [Compound 5, (cis)-4-(2,3-Dihydro-7-methoxybenzofuran-2-spiro-1′-cyclopentane-4-yl)-2-cyclopentyl-4a,5,8,8a-tetrahydro-2H-phthalazin-1-one] |  | 9.22
6 | COc1ccc(C2=NN(C3CCCCCC3)C(=O)C3CC=CCC23)c2c1OC1(CCCC1)C2 (stereo not drawn) [Compound 6, (cis)-4-(2,3-Dihydro-7-methoxybenzofuran-2-spiro-1′-cyclopentan-4-yl)-2-cycloheptyl-4a,5,8,8a-tetrahydro-2H-phthalazin-1-one] |  | 9.17
7 | COc1ccc(C2=NN(Cc3ccccc3)C(=O)C3CC=CCC23)c2c1OC1(CCCC1)C2 (stereo not drawn) [Compound 7, (cis)-4-(2,3-Dihydro-7-methoxybenzofuran-2-spiro-1′-cyclopentan-4-yl)-2-benzyl-4a,5,8,8a-tetrahydro-2H-phthalazin-1-one] |  | 8.93
8 | COc1ccc(C2=NN(c3ccccc3)C(=O)C3CC=CCC23)c2c1OC1(CCCC1)C2 (stereo not drawn) [Compound 8, (cis)-4-(2.3-Dihydro-7-methoxybenzofuran-2-spiro-1′-cyclopentan-4-yl)-2-phenyl-4a,5,8,8a-tetrahydro-2H-phthalazin-1-one] |  | 8.87
9 | COc1ccc(C2=NNC(=O)C3CCCCC23)c2c1OC1(CCCC1)C2 [Compound 9, (4aS, 8aR)-4-(2,3-Dihydro-7-methoxybenzofuran-2-spiro-1′-cyclopentan-4-yl)-4a,5,6,7,8,8a-hexahydro-2H-phthalazin-1-one] |  | 7.80
10 | COc1ccc(C2=NN(Cc3ccc(C(=O)O)cc3)C(=O)C3CCCCC23)c2c1OC1(CCCC1)C2 (stereo not drawn) [Compound 11, (cis)-4-(2,3-Dihydro-7-methoxybenzofuran-2-spiro-1′-cyclopentan-4-yl)-2-(4-carboxybenzyl)-4a,5,6,7,8,8a-hexahydro-2H-phthalazin-1-one] |  | 7.66
11 | COc1ccc(C2=NN(Cc3ccncc3)C(=O)C3CCCCC23)c2c1OC1(CCCC1)C2 (stereo not drawn) [Compound 12, (cis)-4-(2,3-Dihydro-7-methoxybenzofuran-2-spiro-1′-cyclopentan-4-yl)-2-(4-pyridylmethyl)-4a,5,6,7,8,8a-hexahydro-2H-phthalazin-1-one-hydrochloride] |  | 8.22
12 | COc1ccc(C2=NN(C3CCCCCC3)C(=O)C3CCCCC23)c2c1OC1(CCCC1)C2 (stereo not drawn) [Compound 13, (cis)-4-(2,3-Dihydro-7-methoxybenzofuran-2-spiro-1′-cyclopentan-4-yl)-2-cycloheptyl-4a,5,6,7,8,8a-hexahydro-2H-phthalazin-1-one] |  | 9.22
13 | COc1ccc(C2=NN(Cc3ccccc3)C(=O)C3CCCCC23)c2c1OC1(CCCC1)C2 (stereo not drawn) [Compound 14, (cis)-4-(2,3-Dihydro-7-methoxybenzofuran-2-spiro-1′-cyclopentan-4-yl)-2-benzyl-4a,5,6,7,8,8a-hexahydro-2H-phthalazin-1-one] |  | 8.62
14 | COc1ccc(C2=NN(CCO)C(=O)C3CC=CCC23)c2c1OC1(CCCC1)C2 (stereo not drawn) [Compound 17, (cis)-4-(2,3-Dihydro-7-methoxybenzofuran-2-spiro-1′-cyclopentan-4-yl-2-hydroxyethyl-4a,5,8,8a-tetrahydro-2H-phthalazin-1-one] |  | 8.36
15 | COc1ccc(C2=NN(CCCCn3ccnc3)C(=O)C3CC=CCC23)c2c1OC1(CCCC1)C2 (stereo not drawn) [Compound 22, (cis)-4(2,3-Dihydro-7-methoxybenzofuran-2-spiro-1′-cylopentan-4-yl)-2-[4-(imidazol-1yl)-1-butyl]-4a,5,8,8a-tetrahydro-phthalazin-1-one] |  | 8.82
16 | COc1ccc(C2=NN(c3ccc(C(=O)O)cc3)C(=O)C3CC=CCC23)c2c1OC1(CCCC1)C2 (stereo not drawn) [Compound 24, (cis)-4-(2,3-Dihydro-7-methoxybenzofuran-2-spiro-1′-cyclopentan-4-yl)-2-(p-carboxyphenyl)-4a,5,8,8a-tetrahydro-2H-phthalazin-1-one] |  | 9.38
17 | COc1ccc(C2=NN(Cc3ccccc3)C(=O)C3CC=CCC23)c2c1OC(C)(C)C2 (stereo not drawn) [Compound 26, (cis)-4-2,3-Dihydro-2,2-dimethyl-7-methoxybenzofuran-4-yl)-2-benzyl-4a,5,8,8a-tetrahydro-2H-phthalazin-1-one] |  | 8.72
